Measurements from PMC9652372, “Glycolytic flux control by drugging phosphoglycolate phosphatase” (Nature Communications, 2022).
Several values for one entry are separate records, joined by “and”; a condition that tells them apart may be missing. Equal values may be shown once.

Tested on: HT1080 cells
Assay: NMR quantification of cellular metabolites; as to 1-Methylnicotinamide (NMR metabolite level): unit not given here; as to Acetic acid (NMR metabolite level): unit not given here; as to Glutathione (NMR metabolite level): unit not given here; as to Glycerol 3-phosphate (NMR metabolite level): unit not given here; as to Glycine (NMR metabolite level): unit not given here; as to L-Lactic acid (NMR metabolite level): unit not given here; as to L-Lysine (NMR metabolite level): unit not given here; as to L-Tyrosine (NMR metabolite level): unit not given here; as to L-Valine (NMR metabolite level): unit not given here; as to Phosphocreatine (NMR metabolite level): unit not given here; as to Pyroglutamate (NMR metabolite level): unit not given here; as to Taurine (NMR metabolite level): unit not given here; as to Tryptophan (NMR metabolite level): unit not given here
Assay type: cell-based, human

## O=C(Nc1ccccc1C(=O)O)c1ccc(Oc2ccc(C(=O)Nc3ccccc3C(=O)O)cc2)cc1 [CP1]
HT1080 cells, 3 h, 33 µM CP1
  change of acetate levels: −42%
  change of alanine levels: −52%
  change of lactate levels: −45%
  change of pyruvate levels: −10%
T3: 3h CP1-treated, Exp #1-5
  1-Methylnicotinamide (NMR metabolite level): 0.0004582 and 0.0004235 and 0.0007003 and 0.0006519 and 0.0004828
  2-Hydroxyglutarate (NMR metabolite level): 0.01261 and 0.01491 and 0.01314 and 0.01427 and 0.01273
  ATP (NMR metabolite level): 0.001497 and 0.001391 and 0.001868 and 0.001572 and 0.001599
  Acetic acid (NMR metabolite level): 0.004551 and 0.004658 and 0.004836 and 0.004678 and 0.004285
  Choline (NMR metabolite level): 0.0005498 and 0.0005142 and 0.0005336 and 0.0006902 and 0.0006337
  Creatine (NMR metabolite level): 0.00675 and 0.006504 and 0.00667 and 0.008321 and 0.006277
  D-Glucose (NMR metabolite level): 0.1212 and 0.1286 and 0.1124 and 0.1017 and 0.1229
  Dimethylamine (NMR metabolite level): 0.03604 and 0.03364 and 0.02538 and 0.0283 and 0.03615
  Formic acid (NMR metabolite level): 0.001497 and 0.001482 and 0.001868 and 0.001994 and 0.001569
  Fumaric acid (NMR metabolite level): 0.0003054 and 0.0002722 and 0.0003001 and 0.0003451 and 0.0003319
  Glutathione (NMR metabolite level): 0.01109 and 0.01041 and 0.01101 and 0.01265 and 0.01144
  Glycerol 3-phosphate (NMR metabolite level): 0.005205 and 0.004086 and 0.005958 and 0.005982 and 0.004016
  Glycine (NMR metabolite level): 0.01387 and 0.01388 and 0.01587 and 0.01515 and 0.01301
  Histidine (NMR metabolite level): 0.001863 and 0.001573 and 0.001667 and 0.001611 and 0.00166
  L-Alanine (NMR metabolite level): 0.003726 and 0.003932 and 0.003735 and 0.003681 and 0.003651
  L-Arginine (NMR metabolite level): 0.003085 and 0.0036 and 0.003035 and 0.003183 and 0.004798
  L-Aspartic acid (NMR metabolite level): 0.006078 and 0.006201 and 0.007304 and 0.006941 and 0.006337
  L-Glutamic acid (NMR metabolite level): 0.03955 and 0.04114 and 0.04112 and 0.04632 and 0.04125
  L-Glutamine (NMR metabolite level): 0.1032 and 0.09634 and 0.112 and 0.1011 and 0.1019
  L-Isoleucine (NMR metabolite level): 0.008064 and 0.008046 and 0.007837 and 0.007708 and 0.008178
  L-Lactic acid (NMR metabolite level): 0.03287 and 0.03079 and 0.03432 and 0.03474 and 0.0328
  L-Leucine (NMR metabolite level): 0.008094 and 0.008077 and 0.008637 and 0.008321 and 0.007846
  L-Lysine (NMR metabolite level): 0.005651 and 0.005687 and 0.005569 and 0.005062 and 0.005432
  L-Methionine (NMR metabolite level): 0.002474 and 0.002571 and 0.002635 and 0.002454 and 0.002656
  L-Phenylalanine (NMR metabolite level): 0.004704 and 0.004749 and 0.004702 and 0.00464 and 0.004708
  L-Threonine (NMR metabolite level): 0.0135 and 0.01422 and 0.01357 and 0.01411 and 0.01304
  L-Tyrosine (NMR metabolite level): 0.004795 and 0.004537 and 0.004569 and 0.004755 and 0.004798
  L-Valine (NMR metabolite level): 0.007911 and 0.008379 and 0.00757 and 0.007631 and 0.008117
  NAD+ (NMR metabolite level): 0.001405 and 0.001331 and 0.001634 and 0.001764 and 0.001509
  Phosphocreatine (NMR metabolite level): 0.002352 and 0.00245 and 0.002668 and 0.002838 and 0.002474
  Phosphorylcholine (NMR metabolite level): 0.007361 and 0.007078 and 0.008004 and 0.008743 and 0.00688
  Pyroglutamate (NMR metabolite level): 0.007789 and 0.006927 and 0.008071 and 0.008015 and 0.007303
  Pyruvate (NMR metabolite level): 0.004887 and 0.004931 and 0.004602 and 0.004755 and 0.004949
  Serine (NMR metabolite level): 0.006414 and 0.007411 and 0.00707 and 0.007401 and 0.006729
  Succinic acid (NMR metabolite level): 0.001344 and 0.001543 and 0.001501 and 0.001841 and 0.001207
  Taurine (NMR metabolite level): 0.006506 and 0.007653 and 0.005636 and 0.009663 and 0.004858
  Tryptophan (NMR metabolite level): 0.0008552 and 0.0007865 and 0.0009671 and 0.0008436 and 0.0007846
  UDP-N-Acetylglucosamine (NMR metabolite level): 0.00171 and 0.001573 and 0.002001 and 0.002147 and 0.00178
